Where two headings read alike, the source gives them in different places.
How the values were obtained:
Test in all cases: Eurofins kinase selectivity profile against 380 other human recombinant kinases (Table S2)
Format in all cases: biochemical
[1] = molecular target: T1, 380 human recombinant protein kinases (Homo sapiens, UniProt P00519, H396P); conditions: Abl (H396P) (h), read-out: Inhibition rate
T1 construct: purchased Eurofins (Celle Lévescault)
Method in brief: (§1)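 The inhibitor was sent to a contract lab and screened at various concentrations against 380 human recombinant protein kinases. This served as a counter-screen for MK2 specificity.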

[2] = molecular target: T2, 380 human recombinant protein kinases (Homo sapiens, UniProt P00519, M351T); conditions: Abl (M351T)(h), read-out: Inhibition rate
T2 construct: purchased Eurofins (Celle Lévescault)
Method in brief: as §1

[3] = molecular target: T3, 380 human recombinant protein kinases (Homo sapiens, UniProt P24941); conditions: read-out: Inhibition rate; for inhibition at 0.01 µM: 10 nM; for inhibition at 0.1 µM: 100 nM; for inhibition at 1 µM: 1000 nM
T3 construct: purchased Eurofins (Celle Lévescault)
Method in brief: as §1

[4] = molecular target: T4, 380 human recombinant protein kinases (Homo sapiens, UniProt P30291); conditions: Wee1(h), read-out: Inhibition rate (%)
T4 construct: purchased Eurofins (Celle Lévescault)
Method in brief: as §1

[5] = molecular target: T5, 380 human recombinant protein kinases (Homo sapiens, UniProt P42338); conditions: PI3 Kinase (p110β/p85α)(h), read-out: Inhibition rate (%)
T5 construct: purchased Eurofins (Celle Lévescault)
Method in brief: as §1

[6] = molecular target: T6, 380 human recombinant protein kinases (Homo sapiens, UniProt P42685); conditions: PTK5(h), read-out: Inhibition rate
T6 construct: purchased Eurofins (Celle Lévescault)
Method in brief: as §1

[7] = molecular target: T7, 380 human recombinant protein kinases (Homo sapiens, UniProt P51451); conditions: Blk(h), read-out: Inhibition rate
T7 construct: purchased Eurofins (Celle Lévescault)
Method in brief: as §1

[8] = molecular target: T8, 380 human recombinant protein kinases (Homo sapiens, UniProt Q08881); conditions: Itk(h), read-out: Inhibition rate
T8 construct: purchased Eurofins (Celle Lévescault)
T8 sequence (Q08881 1-620): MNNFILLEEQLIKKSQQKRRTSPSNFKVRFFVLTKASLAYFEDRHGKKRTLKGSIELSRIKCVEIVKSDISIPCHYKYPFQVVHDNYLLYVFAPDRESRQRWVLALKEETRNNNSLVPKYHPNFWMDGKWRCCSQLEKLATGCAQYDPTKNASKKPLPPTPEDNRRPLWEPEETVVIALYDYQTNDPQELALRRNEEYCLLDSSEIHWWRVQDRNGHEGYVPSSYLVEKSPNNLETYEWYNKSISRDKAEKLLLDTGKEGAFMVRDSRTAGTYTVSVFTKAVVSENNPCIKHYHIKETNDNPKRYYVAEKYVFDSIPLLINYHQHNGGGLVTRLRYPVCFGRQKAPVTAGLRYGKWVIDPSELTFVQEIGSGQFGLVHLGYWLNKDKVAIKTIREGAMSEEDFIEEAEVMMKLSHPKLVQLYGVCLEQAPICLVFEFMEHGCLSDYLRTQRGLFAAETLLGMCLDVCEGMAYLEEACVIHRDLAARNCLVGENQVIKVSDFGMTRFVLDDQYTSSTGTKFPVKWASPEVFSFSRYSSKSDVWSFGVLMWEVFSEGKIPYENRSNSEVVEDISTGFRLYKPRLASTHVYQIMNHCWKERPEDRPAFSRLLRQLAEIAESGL
Method in brief: as §1

[9] = molecular target: T9, 380 human recombinant protein kinases (Homo sapiens, UniProt Q13535); conditions: ATR/ATRIP(h), read-out: Inhibition rate (%)
T9 construct: purchased Eurofins (Celle Lévescault)
Method in brief: as §1

[10] = molecular target: T10, 380 human recombinant protein kinases (Homo sapiens, UniProt Q15349); conditions: Rsk3(h), read-out: Inhibition rate (%)
T10 construct: purchased Eurofins (Celle Lévescault)
Method in brief: as §1

[11] = molecular target: T11, 380 human recombinant protein kinases (Homo sapiens, UniProt Q86UX6); conditions: STK32C(h), read-out: Inhibition rate (%)
T11 construct: purchased Eurofins (Celle Lévescault)
Method in brief: as §1

[12] = molecular target: T12, 380 human recombinant protein kinases (Homo sapiens, UniProt Q9UM73); conditions: ALK(h), read-out: Inhibition rate
T12 construct: purchased Eurofins (Celle Lévescault)
Method in brief: as §1

[13] = molecular target: T13, 380 human recombinant protein kinases (Homo sapiens, UniProt Q9UQ07); conditions: MOK(h), read-out: Inhibition rate
T13 construct: purchased Eurofins (Celle Lévescault)
T13 sequence (Q9UQ07 1-419): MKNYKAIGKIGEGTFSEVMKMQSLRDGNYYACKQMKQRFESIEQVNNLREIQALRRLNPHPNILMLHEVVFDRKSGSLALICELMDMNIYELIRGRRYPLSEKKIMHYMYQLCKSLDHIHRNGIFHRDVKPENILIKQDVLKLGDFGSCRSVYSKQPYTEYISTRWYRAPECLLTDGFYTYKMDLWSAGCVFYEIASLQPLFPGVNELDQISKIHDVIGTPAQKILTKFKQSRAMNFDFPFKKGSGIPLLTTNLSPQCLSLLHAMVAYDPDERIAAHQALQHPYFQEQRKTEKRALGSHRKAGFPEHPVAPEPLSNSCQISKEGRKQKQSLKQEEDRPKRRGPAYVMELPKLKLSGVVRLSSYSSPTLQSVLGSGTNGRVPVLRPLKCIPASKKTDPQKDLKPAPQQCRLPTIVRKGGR
Method in brief: as §1

T5 sequence (P42338 whole entry): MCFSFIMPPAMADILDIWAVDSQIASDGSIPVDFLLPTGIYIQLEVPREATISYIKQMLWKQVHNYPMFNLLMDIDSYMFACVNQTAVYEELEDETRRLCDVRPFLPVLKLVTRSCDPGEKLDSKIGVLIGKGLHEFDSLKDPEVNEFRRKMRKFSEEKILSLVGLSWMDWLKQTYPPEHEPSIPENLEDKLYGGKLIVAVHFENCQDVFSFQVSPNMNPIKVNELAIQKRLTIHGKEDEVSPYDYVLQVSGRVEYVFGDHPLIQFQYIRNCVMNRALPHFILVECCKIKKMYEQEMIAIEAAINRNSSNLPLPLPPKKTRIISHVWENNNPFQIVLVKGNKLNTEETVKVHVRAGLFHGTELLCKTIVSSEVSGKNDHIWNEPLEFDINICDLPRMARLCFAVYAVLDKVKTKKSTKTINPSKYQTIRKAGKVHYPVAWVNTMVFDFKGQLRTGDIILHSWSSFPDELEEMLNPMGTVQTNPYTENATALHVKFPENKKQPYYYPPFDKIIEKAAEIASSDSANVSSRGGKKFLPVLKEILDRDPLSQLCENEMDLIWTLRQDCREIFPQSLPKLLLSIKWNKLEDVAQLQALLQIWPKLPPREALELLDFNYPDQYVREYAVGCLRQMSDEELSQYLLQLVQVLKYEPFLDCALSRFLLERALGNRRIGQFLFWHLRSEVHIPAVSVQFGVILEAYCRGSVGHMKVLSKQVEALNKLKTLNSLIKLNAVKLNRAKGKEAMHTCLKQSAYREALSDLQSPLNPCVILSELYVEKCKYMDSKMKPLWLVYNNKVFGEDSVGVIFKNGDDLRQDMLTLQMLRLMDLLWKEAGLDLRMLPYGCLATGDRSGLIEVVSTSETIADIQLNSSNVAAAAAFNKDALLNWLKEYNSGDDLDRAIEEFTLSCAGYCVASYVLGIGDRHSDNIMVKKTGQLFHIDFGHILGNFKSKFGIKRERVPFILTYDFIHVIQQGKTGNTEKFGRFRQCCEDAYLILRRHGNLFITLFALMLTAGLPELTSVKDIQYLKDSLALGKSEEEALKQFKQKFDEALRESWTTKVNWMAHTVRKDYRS
T6 sequence (P42685 whole entry): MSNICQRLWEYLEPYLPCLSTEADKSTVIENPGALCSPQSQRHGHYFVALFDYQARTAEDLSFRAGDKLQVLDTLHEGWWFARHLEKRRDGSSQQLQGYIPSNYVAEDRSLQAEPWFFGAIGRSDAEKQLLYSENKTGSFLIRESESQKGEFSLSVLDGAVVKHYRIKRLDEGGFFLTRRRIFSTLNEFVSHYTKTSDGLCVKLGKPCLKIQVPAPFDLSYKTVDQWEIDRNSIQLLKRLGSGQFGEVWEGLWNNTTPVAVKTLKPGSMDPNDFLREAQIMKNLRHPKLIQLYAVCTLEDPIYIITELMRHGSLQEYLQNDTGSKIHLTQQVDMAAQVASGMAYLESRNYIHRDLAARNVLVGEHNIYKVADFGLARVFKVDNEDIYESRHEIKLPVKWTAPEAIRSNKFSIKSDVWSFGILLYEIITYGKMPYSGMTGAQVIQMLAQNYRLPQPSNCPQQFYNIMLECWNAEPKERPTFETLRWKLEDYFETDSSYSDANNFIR
T10 sequence (Q15349 whole entry): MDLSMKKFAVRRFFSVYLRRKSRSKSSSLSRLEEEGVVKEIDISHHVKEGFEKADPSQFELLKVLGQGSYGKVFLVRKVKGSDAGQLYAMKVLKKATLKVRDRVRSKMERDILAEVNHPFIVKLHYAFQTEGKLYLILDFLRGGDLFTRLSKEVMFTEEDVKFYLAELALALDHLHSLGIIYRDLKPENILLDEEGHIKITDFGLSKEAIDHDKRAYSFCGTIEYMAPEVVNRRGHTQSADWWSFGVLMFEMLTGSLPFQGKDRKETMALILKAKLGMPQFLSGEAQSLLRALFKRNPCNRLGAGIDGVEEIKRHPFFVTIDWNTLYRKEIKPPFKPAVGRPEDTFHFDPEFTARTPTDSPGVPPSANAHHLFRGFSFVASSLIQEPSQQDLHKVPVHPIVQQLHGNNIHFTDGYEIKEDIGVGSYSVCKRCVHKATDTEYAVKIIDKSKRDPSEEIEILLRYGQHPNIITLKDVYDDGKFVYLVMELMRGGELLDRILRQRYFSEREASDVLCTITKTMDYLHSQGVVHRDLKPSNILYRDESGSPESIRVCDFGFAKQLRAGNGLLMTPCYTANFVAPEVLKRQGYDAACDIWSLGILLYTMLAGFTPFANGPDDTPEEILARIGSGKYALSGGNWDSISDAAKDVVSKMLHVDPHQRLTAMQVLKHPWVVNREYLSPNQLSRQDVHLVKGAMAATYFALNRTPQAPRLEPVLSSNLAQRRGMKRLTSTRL
T12 sequence (Q9UM73 19-1620): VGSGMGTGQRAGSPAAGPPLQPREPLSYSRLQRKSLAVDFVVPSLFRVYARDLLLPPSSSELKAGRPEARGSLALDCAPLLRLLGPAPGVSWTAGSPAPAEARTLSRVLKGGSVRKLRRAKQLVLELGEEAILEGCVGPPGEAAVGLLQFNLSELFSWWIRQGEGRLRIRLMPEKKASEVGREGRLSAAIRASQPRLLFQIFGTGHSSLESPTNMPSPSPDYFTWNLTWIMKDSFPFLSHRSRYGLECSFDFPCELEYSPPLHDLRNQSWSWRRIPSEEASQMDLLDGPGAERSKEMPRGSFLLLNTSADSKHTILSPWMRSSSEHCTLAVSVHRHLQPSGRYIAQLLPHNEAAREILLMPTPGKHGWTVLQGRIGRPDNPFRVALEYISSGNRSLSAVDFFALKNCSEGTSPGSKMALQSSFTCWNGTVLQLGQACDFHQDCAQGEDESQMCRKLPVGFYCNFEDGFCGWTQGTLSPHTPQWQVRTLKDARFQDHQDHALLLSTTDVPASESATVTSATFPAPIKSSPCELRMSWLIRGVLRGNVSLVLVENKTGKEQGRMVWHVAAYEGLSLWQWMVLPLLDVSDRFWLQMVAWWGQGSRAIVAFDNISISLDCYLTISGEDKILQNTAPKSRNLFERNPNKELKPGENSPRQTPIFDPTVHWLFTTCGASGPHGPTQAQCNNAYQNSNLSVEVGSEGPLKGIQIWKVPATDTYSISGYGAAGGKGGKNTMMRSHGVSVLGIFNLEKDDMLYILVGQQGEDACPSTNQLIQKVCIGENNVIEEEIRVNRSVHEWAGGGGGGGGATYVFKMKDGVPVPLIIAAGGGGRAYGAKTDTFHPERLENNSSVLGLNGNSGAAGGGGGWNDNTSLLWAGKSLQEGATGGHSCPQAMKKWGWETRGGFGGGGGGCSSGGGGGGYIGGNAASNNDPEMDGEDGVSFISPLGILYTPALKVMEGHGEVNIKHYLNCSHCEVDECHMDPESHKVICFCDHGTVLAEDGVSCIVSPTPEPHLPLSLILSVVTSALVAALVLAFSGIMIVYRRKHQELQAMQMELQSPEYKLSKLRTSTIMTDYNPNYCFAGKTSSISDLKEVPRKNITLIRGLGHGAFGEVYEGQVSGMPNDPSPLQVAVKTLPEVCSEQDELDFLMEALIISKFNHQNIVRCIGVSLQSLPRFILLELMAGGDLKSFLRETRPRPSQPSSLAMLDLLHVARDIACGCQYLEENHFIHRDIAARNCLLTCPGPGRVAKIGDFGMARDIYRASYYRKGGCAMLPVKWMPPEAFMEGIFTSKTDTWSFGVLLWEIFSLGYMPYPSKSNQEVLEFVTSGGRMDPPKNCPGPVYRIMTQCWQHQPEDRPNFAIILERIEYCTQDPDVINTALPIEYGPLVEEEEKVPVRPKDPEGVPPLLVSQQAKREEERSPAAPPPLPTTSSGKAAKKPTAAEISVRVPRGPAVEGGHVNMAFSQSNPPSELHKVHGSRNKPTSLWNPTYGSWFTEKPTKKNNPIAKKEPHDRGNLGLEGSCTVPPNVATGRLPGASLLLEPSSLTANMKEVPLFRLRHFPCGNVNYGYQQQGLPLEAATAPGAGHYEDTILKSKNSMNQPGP
T11 sequence (Q86UX6 whole entry): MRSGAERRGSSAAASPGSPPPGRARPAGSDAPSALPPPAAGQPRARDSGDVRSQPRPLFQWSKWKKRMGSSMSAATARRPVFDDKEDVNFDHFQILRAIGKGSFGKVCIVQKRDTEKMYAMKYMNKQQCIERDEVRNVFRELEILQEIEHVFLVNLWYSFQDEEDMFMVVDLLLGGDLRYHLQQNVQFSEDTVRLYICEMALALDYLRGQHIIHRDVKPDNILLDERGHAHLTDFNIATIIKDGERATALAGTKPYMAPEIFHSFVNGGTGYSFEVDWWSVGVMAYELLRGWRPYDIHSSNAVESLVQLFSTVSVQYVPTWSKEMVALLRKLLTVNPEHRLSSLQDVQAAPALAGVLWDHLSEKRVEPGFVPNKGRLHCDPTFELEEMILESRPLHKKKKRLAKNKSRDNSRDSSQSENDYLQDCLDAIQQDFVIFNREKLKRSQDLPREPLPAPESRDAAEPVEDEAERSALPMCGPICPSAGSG
T4 sequence (P30291 whole entry): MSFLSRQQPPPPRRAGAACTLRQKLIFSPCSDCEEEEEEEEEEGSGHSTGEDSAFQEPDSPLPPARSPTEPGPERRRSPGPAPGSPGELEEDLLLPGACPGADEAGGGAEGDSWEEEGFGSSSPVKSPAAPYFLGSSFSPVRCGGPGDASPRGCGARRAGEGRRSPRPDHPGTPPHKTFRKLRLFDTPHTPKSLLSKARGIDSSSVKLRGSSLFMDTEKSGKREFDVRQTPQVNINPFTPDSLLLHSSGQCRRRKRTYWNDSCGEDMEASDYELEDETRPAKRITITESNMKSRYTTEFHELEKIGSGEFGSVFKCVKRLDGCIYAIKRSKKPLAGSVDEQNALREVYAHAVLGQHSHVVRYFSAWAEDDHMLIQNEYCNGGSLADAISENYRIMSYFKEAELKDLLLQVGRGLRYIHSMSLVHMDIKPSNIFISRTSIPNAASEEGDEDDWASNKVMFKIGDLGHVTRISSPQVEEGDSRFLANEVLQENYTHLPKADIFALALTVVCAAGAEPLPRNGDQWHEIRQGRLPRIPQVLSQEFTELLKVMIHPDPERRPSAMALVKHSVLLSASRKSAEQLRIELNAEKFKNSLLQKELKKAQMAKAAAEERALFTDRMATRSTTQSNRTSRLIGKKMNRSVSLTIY

Work on C=CC(=O)Nc1cc(-c2cc(-c3cc4c([nH]3)CCNC4=O)ccn2)ccc1OC(F)(F)F [compound 11] yielded an inhibition at 0.01 µM ([1]; 10 nM) of 6%, an inhibition at 0.1 µM ([1]; 100 nM) of 3% and an inhibition at 1 µM ([1]; 1000 nM) of 1%. For the same compound, the inhibition at 0.01 µM ([2]; 10 nM) was 9%, the inhibition at 0.1 µM ([2]; 100 nM) was 2% and the inhibition at 1 µM ([2]; 1000 nM) was 22%. The inhibition at 0.01 µM ([3]; CDK2/cyclinA(h)) was -5%, the inhibition at 0.1 µM ([3]; CDK2/cyclinA(h)) was 0% and the inhibition at 1 µM ([3]; CDK2/cyclinA(h)) was 7%. For the same compound, the inhibition at 0.01 µM ([3]; CDK2/cyclinE(h)) was -3%, the inhibition at 0.1 µM ([3]; CDK2/cyclinE(h)) was 1% and the inhibition at 1 µM ([3]; CDK2/cyclinE(h)) was -1%. For the same compound, the inhibition at 0.01 µM ([4]; 10 nM) was -11%, the inhibition at 0.1 µM ([4]; 100 nM) was -11% and the inhibition at 1 µM ([4]; 1000 nM) was -4%. For the same compound, the inhibition at 0.01 µM ([5]; 10 nM) was -1%, the inhibition at 0.1 µM ([5]; 100 nM) was -1% and the inhibition at 1 µM ([5]; 1000 nM) was -1%. The inhibition at 0.01 µM ([6]; 10 nM) was -7%, the inhibition at 0.1 µM ([6]; 100 nM) was 6% and the inhibition at 1 µM ([6]; 1000 nM) was 5%. For the same compound, the inhibition at 0.01 µM ([7]; 10 nM) was 13%, the inhibition at 0.1 µM ([7]; 100 nM) was 4% and the inhibition at 1 µM ([7]; 1000 nM) was 12%. It also gave an inhibition at 0.01 µM ([8]; 10 nM) of 1%, an inhibition at 0.1 µM ([8]; 100 nM) of -2% and an inhibition at 1 µM ([8]; 1000 nM) of 3%. For the same compound, the inhibition at 0.01 µM ([9]; 10 nM) was -15%, the inhibition at 0.1 µM ([9]; 100 nM) was -17% and the inhibition at 1 µM ([9]; 1000 nM) was -20%. It also gave an inhibition at 0.01 µM ([10]; 10 nM) of -9%, an inhibition at 0.1 µM ([10]; 100 nM) of 14% and an inhibition at 1 µM ([10]; 1000 nM) of 16%. For the same compound, the inhibition at 0.01 µM ([11]; 10 nM) was 0%, the inhibition at 0.1 µM ([11]; 100 nM) was 4% and the inhibition at 1 µM ([11]; 1000 nM) was 1%. For the same compound, the inhibition at 0.01 µM ([12]; 10 nM) was 6%, the inhibition at 0.1 µM ([12]; 100 nM) was 6% and the inhibition at 1 µM ([12]; 1000 nM) was 16%. It also gave an inhibition at 0.01 µM ([13]; 10 nM) of 11%, an inhibition at 0.1 µM ([13]; 100 nM) of 7% and an inhibition at 1 µM ([13]; 1000 nM) of 2%.
